Data taken from article PMC8129133, “Polymer-free corticosteroid dimer implants for controlled and sustained drug delivery” (Nature Communications, 2021).
Several values for one entry are separate records, joined by “and”; a condition that tells them apart may be missing. Equal values may be shown once.

Assay: In vitro release
Assay type: physicochemical
Conditions: for 30G x 6 mm - Cumulative Dex Release / 23G x 6 mm - Cumulative Dex Release: single samples and AVG; for Dex Release: Fig 5h implants, 1.5 ml FBS; for Cumulative Dex (%) / Cumulative Dex-TEG (%) / Cumulative Dex-TEG-Dex (%): Fig 4d pellet
Procedure: Pellets for release studies. Crystalline drug dimers were weighed on a stainless steel coupon. In the case of blends with a second drug, the dimer and drug were mixed at the desired mass ratio with mortar and pestle prior to weighing. Samples were transferred to a heat press (Carver Laboratory Press). A PTFE mold containing an array of 1 mm diameter holes of 1 mm depth was placed on top of the melt, and pressure was applied for 2 min. Molded pellets were cooled to room temperature and punched out of the mold, yielding a pellet of 1 mm height × 1 mm diameter.
Release studies were carried out using different media, including PBS (pH 7.4, Gibco), 100% FBS (Sigma, F1051), 1% FBS in PBS pH 7.4, and 3.6% BSA (Sigma, A7906) in PBS (pH 7.4, Gibco). […] Samples were incubated in release medium at 37 °C under constant agitation on an orbital shaker at 115 rpm (VWR). At designated timepoints, sampling was performed by complete removal of medium and replenishment with fresh buffer. Sampling timepoints included 24 h and then every 3–4 days thereafter. For PBS release conditions, samples were analyzed directly. For samples with protein (100% FBS, 1% FBS, 3.6% BSA), protein was precipitated by addition of acetonitrile. Samples were vortexed and centrifuged to separate extracted drug from precipitated protein. The supernatant was then analyzed for drug concentration by HPLC.

C[C@@H]1C[C@H]2[C@@H]3CCC4=CC(=O)C=C[C@]4(C)[C@@]3(F)[C@@H](O)C[C@]2(C)[C@@]1(O)C(=O)COC(=O)OCCOCCOCCOC(=O)OCC(=O)[C@@]1(O)[C@H](C)C[C@H]2[C@@H]3CCC4=CC(=O)C=C[C@]4(C)[C@@]3(F)[C@@H](O)C[C@@]21C [Dex-TEG-Dex]
30G x 6 mm - Cumulative Dex Release (Fig 4e, Day 24, mean): 14632.22 ng | 23G x 6 mm - Cumulative Dex Release, % (Fig 4e, Day 28, AVG): 5.83% | 30G x 6 mm - Cumulative Dex Release, % (Fig 4e, Day 28, AVG): 26.07% | 23G x 6 mm - Cumulative Dex Release (Fig 4e, Day 28): 22513.24 ng and 19328.26 ng and 15619.66 ng and 21703.43 ng and 22527.37 ng and 19996.59 ng | 30G x 6 mm - Cumulative Dex Release (Fig 4e, Day 28): 17080.41 ng and 16856.88 ng and 15635.65 ng and 15175.33 ng and 17376.10 ng | 23G x 6 mm - Cumulative Dex Release (Fig 4e, Day 28, mean): 20281.43 ng | 30G x 6 mm - Cumulative Dex Release (Fig 4e, Day 28, mean): 16424.87 ng | Cumulative Dex Release (Fig 5e extruded rods, 4.4 ml PBS, Day 3, samples and avg): 1097.22 ng and 914.62 ng and 1001.18 ng | Cumulative Dex Release (Fig 5e extruded rods, 4.4 ml PBS, Day 3, samples and avg, mean): 1004.34 ng | Cumulative Dex Release (Fig 5e extruded rods, 4.4 ml PBS, Day 7, samples and avg): 2505.34 ng and 2182.65 ng and 1890.99 ng | Cumulative Dex Release (Fig 5e extruded rods, 4.4 ml PBS, Day 7, samples and avg, mean): 2192.99 ng | Cumulative Dex Release (Fig 5e extruded rods, 4.4 ml PBS, Day 10, samples and avg): 3527.54 ng and 3009.52 ng and 2686.37 ng | Cumulative Dex Release (Fig 5e extruded rods, 4.4 ml PBS, Day 10, samples and avg, mean): 3074.48 ng | Cumulative Dex Release (Fig 5e extruded rods, 4.4 ml PBS, Day 14, samples and avg): 4834.31 ng and 3361.72 ng and 3917.67 ng | Cumulative Dex Release (Fig 5e extruded rods, 4.4 ml PBS, Day 14, samples and avg, mean): 4037.90 ng | Cumulative Dex Release (%) (Fig 5e extruded rods, PBS, Day 3, avg): 5.68% | Cumulative Dex Release (%) (Fig 5e extruded rods, PBS, Day 7, avg): 12.40% | Cumulative Dex Release (%) (Fig 5e extruded rods, PBS, Day 10, avg): 17.39% | Cumulative Dex Release (%) (Fig 5e extruded rods, PBS, Day 14, avg): 22.83% | Cumulative Dex Release (Fig 5g pellet 1x1 mm, 2 ml FBS, Day 1, samples and avg): 7893.42 ng and 9312.84 ng and 6181.88 ng | Cumulative Dex Release (Fig 5g pellet 1x1 mm, 2 ml FBS, Day 1, samples and avg, mean): 7796.05 ng | Cumulative Dex Release (Fig 5g pellet 1x1 mm, 2 ml FBS, Day 4, samples and avg): 30339.61 ng and 45405.22 ng and 23002.55 ng | Cumulative Dex Release (Fig 5g pellet 1x1 mm, 2 ml FBS, Day 4, samples and avg, mean): 32915.79 ng | Cumulative Dex Release (Fig 5g pellet 1x1 mm, 2 ml FBS, Day 7, samples and avg (Dex-TEG-Dex)): 54914.64 ng and 66482.50 ng and 47540.80 ng | Cumulative Dex Release (Fig 5g pellet 1x1 mm, 2 ml FBS, Day 7, samples and avg (Dex-TEG-Dex), mean): 56312.65 ng | Cumulative Dex Release (Fig 5g pellet 1x1 mm, 2 ml FBS, Day 12, samples and avg): 107363.57 ng and 105953.49 ng and 95651.85 ng | Cumulative Dex Release (Fig 5g pellet 1x1 mm, 2 ml FBS, Day 12, samples and avg, mean): 102989.64 ng | Cumulative Dex Release (Fig 5g pellet 1x1 mm, 2 ml FBS, Day 14, samples and avg (Dex-TEG-Dex)): 134750.54 ng and 130454.95 ng and 117349.61 ng | Cumulative Dex Release (Fig 5g pellet 1x1 mm, 2 ml FBS, Day 14, samples and avg (Dex-TEG-Dex), mean): 127518.37 ng | Cumulative Dex Release (%) (Fig 5g pellet, FBS, Day 1, avg): 1.53% | Cumulative Dex Release (%) (Fig 5g pellet, FBS, Day 4, avg): 6.45% | Cumulative Dex Release (%) (Fig 5g pellet, FBS, Day 7, avg (Dex-TEG-Dex)): 11.03% | Cumulative Dex Release (%) (Fig 5g pellet, FBS, Day 12, avg): 20.18% | Cumulative Dex Release (%) (Fig 5g pellet, FBS, Day 14, avg (Dex-TEG-Dex)): 24.99% | Dex Release (Surface Area 0.4 mm2): 4010.80 ng/day and 4214.70 ng/day and 4298.12 ng/day | Dex Release (Surface Area 2.23 mm2): 36784.29 ng/day and 23408.43 ng/day and 28616.37 ng/day | Dex Release (Surface Area 5.3 mm2): 79250.12 ng/day and 77804.43 ng/day and 51184.45 ng/day | Cumulative Dex (%) (3.6% BSA, Day 1): 0.09% | Cumulative Dex-TEG (%) (3.6% BSA, Day 1): 0.00388% and 0.000233% and 0.00% and 0.00648% | Cumulative Dex-TEG-Dex (%) (3.6% BSA, Day 1): 0.27% and 0.25% and 0.32% and 0.24% and 0.26% and 0.273% | Cumulative Dex (%) (3.6% BSA, Day 3): 0.26% | Cumulative Dex-TEG (%) (3.6% BSA, Day 3): 0.0221% and 0.0216% and 0.0328% and 0.0218% and 0.0264% and 0.0252% | Cumulative Dex-TEG-Dex (%) (3.6% BSA, Day 3): 0.51% and 0.48% and 0.61% and 0.44% and 0.4979% | Cumulative Dex-TEG (%) (3.6% BSA, Day 7): 0.08% and 0.09% and 0.10% and 0.12% | Cumulative Dex-TEG-Dex (%) (3.6% BSA, Day 7): 0.69% and 0.68% and 0.90% and 0.62% and 0.66% and 0.7212% | Cumulative Dex (%) (3.6% BSA, Day 10): 1.32% | Cumulative Dex-TEG (%) (3.6% BSA, Day 10): 0.18% and 0.14% and 0.15% and 0.16% and 0.20% | Cumulative Dex-TEG-Dex (%) (3.6% BSA, Day 10): 0.89% and 1.18% and 0.82% and 0.87% and 0.9318% | Cumulative Dex (%) (3.6% BSA, Day 14): 1.97% | Cumulative Dex-TEG (%) (3.6% BSA, Day 14): 0.28% and 0.21% and 0.25% and 0.22% | Cumulative Dex-TEG-Dex (%) (3.6% BSA, Day 14): 1.13% and 1.12% and 1.43% and 0.98% and 1.06% and 1.102% | Cumulative Dex-TEG (%) (100% FBS, Day 1): 0.00% | Cumulative Dex-TEG-Dex (%) (100% FBS, Day 1): 0.045% and 0.05% and 0.07% | Cumulative Dex-TEG (%) (100% FBS, Day 3): 0.02% and 0.0246% and 0.00% | Cumulative Dex-TEG-Dex (%) (100% FBS, Day 3): 0.11% and 0.16% and 0.18% | Cumulative Dex-TEG (%) (100% FBS, Day 7): 0.06% and 0.0546% and 0.04% | Cumulative Dex-TEG-Dex (%) (100% FBS, Day 7): 0.22% and 0.28% and 0.36% | Cumulative Dex-TEG (%) (100% FBS, Day 10): 0.0647% and 0.0546% and 0.06% | Cumulative Dex-TEG-Dex (%) (100% FBS, Day 10): 0.29% and 0.38% and 0.50% | Cumulative Dex-TEG (%) (100% FBS, Day 14): 0.08% and 0.10% | Cumulative Dex-TEG-Dex (%) (100% FBS, Day 14): 0.39% and 0.49% and 0.68% | Cumulative Dex Release (Fig 5d coating, 4 ml PBS, Day 3, samples and avg): 5791.09 ng and 5024.11 ng | Cumulative Dex Release (Fig 5d coating, 4 ml PBS, Day 3, samples and avg, mean): 5535.43 ng | Cumulative Dex Release (Fig 5d coating, 4 ml PBS, Day 7, samples and avg): 17637.28 ng and 18646.47 ng and 15578.55 ng | Cumulative Dex Release (Fig 5d coating, 4 ml PBS, Day 7, samples and avg, mean): 17287.43 ng | Cumulative Dex Release (Fig 5d coating, 4 ml PBS, Day 10, samples and avg): 20320.09 ng and 21014.00 ng and 17829.42 ng | Cumulative Dex Release (Fig 5d coating, 4 ml PBS, Day 10, samples and avg, mean): 19721.17 ng | Cumulative Dex Release (Fig 5d coating, 4 ml PBS, Day 14, samples and avg): 28452.49 ng and 28863.83 ng and 25840.72 ng | Cumulative Dex Release (Fig 5d coating, 4 ml PBS, Day 14, samples and avg, mean): 27719.01 ng | Cumulative Dex Release (%) (Fig 5d coating, PBS, Day 3, avg): 0.71% | Cumulative Dex Release (%) (Fig 5d coating, PBS, Day 7, avg): 2.21% | Cumulative Dex Release (%) (Fig 5d coating, PBS, Day 10, avg): 2.52% | Cumulative Dex Release (%) (Fig 5d coating, PBS, Day 14, avg): 3.55%
